Results on one compound are retold here after patent US20090239926A1, “METHODS FOR THE TREATMENT OF PSORIASIS OR PSORIATIC ARTHRITIS USING CYCLOPROPYL-N-CARBOXAMIDE” (priority 2008, published 2009).

Test [1] has as its system LPS-stimulated human whole blood TNF-α production. In words: LPS-induced TNF-α production in human whole blood. Type of test: cell-based. The method, then:
LPS-induced TNF-α production in Human Whole Blood: The ability of Compound A to inhibit LPS-induced TNF-α production by human whole blood was measured as described above for the LPS-induced TNF-α assay in human PBMC, except that freshly drawn whole blood was used instead of PBMC.

Test [2] deals with T1, PDE5 from human platelets (Homo sapiens, UniProt O76074).
T1 construct: PDE3 and PDE5 from human platelets; from tissue; host or cells: human platelets
In words: Specificity: PDE5. Format: biochemical. The method, then: (§1) The specificity of Compound A for PDE4 was assessed by testing at a single concentration (10 μM) against bovine PDE1, human PDE2, PDE3 and PDE5 from human platelets, and PDE6 from bovine retinal rod outer segments.

For test [3], the system named is collagen-induced arthritis in male DBA/1 mice. In words: Type II collagen-induced mice arthritis model. Format: in vivo. The settings on record: 25 mg/kg orally once a day for 10 days. Here is the method:
Collagen-Induced Arthritis Animal Model: Type II collagen purified from the cartilage of a young calf was dissolved at 4 mg/ml in 0.1M acetic acid and emulsified with an equal volume of complete Freund's adjuvant (CFA). DBA/1 mice (8-12 weeks of age) were then immunized at two sites at the base of the tail on Day 1 with 100 μl of the emulsion.
Treatment regime and measurement of clinical score: 14 animals per test group were treated orally once a day for 10 days (Days 1-10) with vehicle (0.5% carboxymethyl-cellulose/0.25% Tween 80), or Compound A suspended in vehicle at 5 mg/kg or 25mg/kg. The experiment was terminated on Day 10. Mice were monitored daily for signs of arthritis and scored using an established clinical scoring system, where: 0=normal, 1=slight swelling and/or erythema, and 2=pronounced edematous swelling. Each limb was graded, giving a maximum score of 8 per mouse. In addition, paw-swelling was measured using calipers.
Histology: At the end of the experiment, paws from treated mice were fixed in formal saline, decalcified and embedded in wax, sectioned and stained with hematoxylin and eosin. […]

The subject of the next test is bovine PDE1. In words: Specificity: PDE1. Type of test: biochemical. The settings on record: at 10 μM. The method, then:
as §1

Test [4] has as its target T2, PDE3 from human platelets (Homo sapiens, UniProt Q14432).
T2 construct: PDE3 and PDE5 from human platelets; from tissue; host or cells: human platelets
The test is described as follows: Specificity: PDE3. Type of test: biochemical. Here is the method: as §1

SMILES strings stand for the structures. “And” between values parts separate entries of the source, which are not always exact repeats. Identical values can stand only once.

T2 sequence (Q14432 whole entry): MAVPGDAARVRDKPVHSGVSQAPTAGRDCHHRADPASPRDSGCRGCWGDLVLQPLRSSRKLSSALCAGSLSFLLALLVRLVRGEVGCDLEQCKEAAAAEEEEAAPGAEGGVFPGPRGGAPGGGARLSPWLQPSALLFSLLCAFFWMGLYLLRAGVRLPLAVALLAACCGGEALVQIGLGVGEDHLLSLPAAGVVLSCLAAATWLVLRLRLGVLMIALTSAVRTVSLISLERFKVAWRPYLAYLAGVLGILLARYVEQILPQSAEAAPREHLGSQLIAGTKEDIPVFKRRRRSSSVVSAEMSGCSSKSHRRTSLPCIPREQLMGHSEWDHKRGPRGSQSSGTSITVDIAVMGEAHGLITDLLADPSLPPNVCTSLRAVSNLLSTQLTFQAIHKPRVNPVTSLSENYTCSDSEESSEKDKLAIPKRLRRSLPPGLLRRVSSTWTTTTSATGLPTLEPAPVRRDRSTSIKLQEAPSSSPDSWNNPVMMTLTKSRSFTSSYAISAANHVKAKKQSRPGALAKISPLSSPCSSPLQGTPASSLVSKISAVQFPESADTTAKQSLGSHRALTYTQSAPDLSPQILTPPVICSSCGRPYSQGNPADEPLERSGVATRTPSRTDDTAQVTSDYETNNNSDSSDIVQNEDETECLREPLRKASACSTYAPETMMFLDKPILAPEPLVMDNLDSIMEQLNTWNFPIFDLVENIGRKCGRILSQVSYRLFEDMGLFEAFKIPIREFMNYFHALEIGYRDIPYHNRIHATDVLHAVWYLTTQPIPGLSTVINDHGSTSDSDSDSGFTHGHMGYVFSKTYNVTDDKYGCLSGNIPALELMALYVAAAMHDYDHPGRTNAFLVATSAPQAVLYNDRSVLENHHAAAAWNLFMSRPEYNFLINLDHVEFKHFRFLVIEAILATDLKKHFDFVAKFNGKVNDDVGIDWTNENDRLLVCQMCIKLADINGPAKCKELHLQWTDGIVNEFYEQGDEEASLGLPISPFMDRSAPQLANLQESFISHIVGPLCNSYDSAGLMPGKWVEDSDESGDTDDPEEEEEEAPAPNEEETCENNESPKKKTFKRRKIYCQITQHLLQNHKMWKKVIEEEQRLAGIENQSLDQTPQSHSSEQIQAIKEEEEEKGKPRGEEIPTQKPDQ

Broadly, the IC50 is the concentration at which inhibition is half-maximal. One may read the inhibition as the relative decrease from the control value, in per cent. In the case of `CCOc1cc([C@@H](CS(C)(=O)=O)N2Cc3cccc(NC(=O)C4CC4)c3C2=O)ccc1OC` [Compound A, cyclopropyl-N-{2-[(1S)-1-(3-ethoxy-4-methoxyphenyl)-2-(methylsulfonyl)ethyl]-3-oxoisoindoline-4-yl}carboxamide], the IC50 in test [1] is 240 nM and 0.11 µg/mL. The inhibition at 10 µM is -7% in test [2] and 9% in test [4]. Also, the “clinical severity of arthritis (clinical score)” value in test [3] (FIG. 3) was “effective in reducing the clinical severity of arthritis”. For the same compound, the “histological severity of arthritis” value in test [3] (P<0.05, FIG. 4) is reported as “reduced the histological severity of arthritis”. Moreover, in the test on bovine PDE1, the PDE1 % inhibition was determined as 30%.
